# According to US20020137929A1, “1 - (3-heterocyclylphenyl) isothiourea, -isourea, -guanidine and -amidine herbicidal agents” (Intellectual Property Department, BASF Aktiengesellschaft, priority 1998, published 2002):
# Assays:
# CYPIR (Rice Flatsedge) = experiment: Preemergence weed control under flooded paddy conditions; type: in vivo, Cyperus iria; conditions: rated 3-4 weeks after treatment
# Outline: (§1)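 Visual injury scored 0-9 against control three to four weeks post-treatment, greenhouse-grown. Application: acetone/water (50/50) solutions dosed directly into flood water (1.5-3 cm over silt loam, planted top 0.5 cm), roughly 0.0313 to 0.500 kg/ha active ingredient.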
# [1] = test system: TRZAWR (Wheat, Winter, cv Riband); experiment: Preemergence herbicidal evaluation; type: in vivo, Triticum aestivum; conditions: rated 4-5 weeks after treatment, rating scale 0-9
# Outline: (§2)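 Herbicidal effect scored visually, 0-9, at 4 to 5 weeks against a control; compound applied preemergence by aqueous acetone spray to seeded soil at about 0.0156 to 0.500 kg/ha.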
# ORYSAT (Rice, Tebonnet) [2] = experiment: Postemergence herbicidal evaluation; type: in vivo, Oryza sativa, (L.) Tebonnet; conditions: postemergence
# Outline: (§3)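 ~2-wk seedlings; postemergence spray, 40 psi; vehicle 1:1 acetone:water + 0.5% Tween 20; rate ≈0.0156–0.500 kg/ha; greenhouse hold; scored 4–5 wk after treatment, 0–9 scale vs control; repeat tests averaged.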
# [3] = test system: SAGPY (Arrowhead (Pygmaea)); experiment: Preemergence weed control under flooded paddy conditions; type: in vivo, Sagittaria pygmaea; conditions: rated 3-4 weeks after treatment
# Outline: as §1
# SETVI (Foxtail, Green) = experiment: Preemergence herbicidal evaluation; type: in vivo, Setaria viridis; conditions: rated 4-5 weeks after treatment, rating scale 0-9
# Outline: as §2
# ZEAMX (Corn, Field) = experiment: Preemergence herbicidal evaluation; type: in vivo, Zea mays; conditions: rated 4-5 weeks after treatment, rating scale 0-9
# Outline: as §2
# [4] = test system: CHEAL (Lambsquarters, Common); experiment: Postemergence herbicidal evaluation; type: in vivo, Chenopodium album; conditions: postemergence
# Outline: as §3
# GALAP (Galium) = experiment: Preemergence herbicidal evaluation; type: in vivo, Galium aparine; conditions: rated 4-5 weeks after treatment, rating scale 0-9
# Outline: as §2
# ECHCG (Barnyardgrass) = experiment: Postemergence herbicidal evaluation; type: in vivo, Echinochloa crus-galli; conditions: postemergence
# Outline: as §3
# [5] = test system: GLXMAW (Soybean, Williams); experiment: Preemergence herbicidal evaluation; type: in vivo, Glycine max, (L.) Merr. cv Williams; conditions: rated 4-5 weeks after treatment, rating scale 0-9
# Outline: as §2
# ORYSAT (Rice, Tebonnet) [6] = experiment: Preemergence herbicidal evaluation; type: in vivo, Oryza sativa, (L.) Tebonnet; conditions: rated 4-5 weeks after treatment, rating scale 0-9
# Outline: as §2
# CASOB (Sicklepod) = experiment: Postemergence herbicidal evaluation; type: in vivo, Cassia obtusifolia; conditions: postemergence
# Outline: as §3
# MOOVA (Monochoria) = experiment: Preemergence weed control under flooded paddy conditions; type: in vivo, Monochoria vaginalis; conditions: rated 3-4 weeks after treatment
# Outline: as §1
structure (smiles),measurement,setting,value
"Cn1c(C(F)(F)F)cc(=O)n(-c2cc(N=C3SCC(=O)N3Cc3cccc(C(F)(F)F)c3)c(Cl)cc2F)c1=O [Compound 142, 3-{4-Chloro-2-fluoro-5-{{3-[m-(trifluoromethyl)benzyl]-4-oxo-2-thiazolidinylidene}-amino}phenyl}-1-methyl-6-(trifluoromethyl)-2,4(1H,3H)-pyrimidinedione]","herbicidal effect rating, CYPIR",CYPIR (Rice Flatsedge); 0.0313 kg/ha,0.0
same,"herbicidal effect rating, CYPIR",CYPIR (Rice Flatsedge); 0.0625 kg/ha,2.0
same,"herbicidal effect rating, CYPIR",CYPIR (Rice Flatsedge); 0.1250 kg/ha,6.0
same,"herbicidal effect rating, CYPIR",CYPIR (Rice Flatsedge); 0.2500 kg/ha,7.0
same,Preemergence herbicidal rating TRZAWR,[1]; rate 0.0156 kg/ha,0.0
same,Preemergence herbicidal rating TRZAWR,[1]; rate 0.0313 kg/ha,0.0
same,Preemergence herbicidal rating TRZAWR,[1]; rate 0.0625 kg/ha,0.0
same,Preemergence herbicidal rating TRZAWR,[1]; rate 0.1250 kg/ha,0.0
same,Preemergence herbicidal rating TRZAWR,[1]; rate 0.2500 kg/ha,0.0
same,herbicidal rating ORYSAT,"ORYSAT (Rice, Tebonnet) [2]; rate 0.0156 kg/ha",2.0
same,herbicidal rating ORYSAT,"ORYSAT (Rice, Tebonnet) [2]; rate 0.0313 kg/ha",1.5
same,herbicidal rating ORYSAT,"ORYSAT (Rice, Tebonnet) [2]; rate 0.0625 kg/ha",2.0
same,"herbicidal effect rating, SAGPY",[3]; 0.0313 kg/ha,0.0
same,"herbicidal effect rating, SAGPY",[3]; 0.0625 kg/ha,0.0
same,"herbicidal effect rating, SAGPY",[3]; 0.1250 kg/ha,0.0
same,"herbicidal effect rating, SAGPY",[3]; 0.2500 kg/ha,2.0
same,Preemergence herbicidal rating SETVI,"SETVI (Foxtail, Green); rate 0.0156 kg/ha",0.0
same,Preemergence herbicidal rating SETVI,"SETVI (Foxtail, Green); rate 0.0313 kg/ha",1.0
same,Preemergence herbicidal rating SETVI,"SETVI (Foxtail, Green); rate 0.0625 kg/ha",0.0
same,Preemergence herbicidal rating SETVI,"SETVI (Foxtail, Green); rate 0.1250 kg/ha",2.0
same,Preemergence herbicidal rating SETVI,"SETVI (Foxtail, Green); rate 0.2500 kg/ha",7.0
same,Preemergence herbicidal rating ZEAMX,"ZEAMX (Corn, Field); rate 0.0156 kg/ha",0.0
same,Preemergence herbicidal rating ZEAMX,"ZEAMX (Corn, Field); rate 0.0313 kg/ha",0.0
same,Preemergence herbicidal rating ZEAMX,"ZEAMX (Corn, Field); rate 0.0625 kg/ha",0.0
same,Preemergence herbicidal rating ZEAMX,"ZEAMX (Corn, Field); rate 0.1250 kg/ha",2.0
same,Preemergence herbicidal rating ZEAMX,"ZEAMX (Corn, Field); rate 0.2500 kg/ha",2.0
same,herbicidal rating CHEAL,[4]; rate 0.0156 kg/ha,4.0
same,herbicidal rating CHEAL,[4]; rate 0.0313 kg/ha,9.0
same,herbicidal rating CHEAL,[4]; rate 0.0625 kg/ha,9.0
same,Preemergence herbicidal rating GALAP,GALAP (Galium); rate 0.0156 kg/ha,0.0
same,Preemergence herbicidal rating GALAP,GALAP (Galium); rate 0.0313 kg/ha,0.0
same,Preemergence herbicidal rating GALAP,GALAP (Galium); rate 0.0625 kg/ha,0.0
same,Preemergence herbicidal rating GALAP,GALAP (Galium); rate 0.1250 kg/ha,0.0
same,Preemergence herbicidal rating GALAP,GALAP (Galium); rate 0.2500 kg/ha,9.0
same,herbicidal rating ECHCG,ECHCG (Barnyardgrass); rate 0.0156 kg/ha,1.0
same,herbicidal rating ECHCG,ECHCG (Barnyardgrass); rate 0.0313 kg/ha,1.0
same,herbicidal rating ECHCG,ECHCG (Barnyardgrass); rate 0.0625 kg/ha,2.0
same,Preemergence herbicidal rating GLXMAW,[5]; rate 0.0156 kg/ha,1.0
same,Preemergence herbicidal rating GLXMAW,[5]; rate 0.0313 kg/ha,0.0
same,Preemergence herbicidal rating GLXMAW,[5]; rate 0.0625 kg/ha,0.0
same,Preemergence herbicidal rating GLXMAW,[5]; rate 0.1250 kg/ha,0.0
same,Preemergence herbicidal rating GLXMAW,[5]; rate 0.2500 kg/ha,1.0
same,Preemergence herbicidal rating ORYSAT,"ORYSAT (Rice, Tebonnet) [6]; rate 0.0156 kg/ha",0.0
same,Preemergence herbicidal rating ORYSAT,"ORYSAT (Rice, Tebonnet) [6]; rate 0.0313 kg/ha",0.0
same,Preemergence herbicidal rating ORYSAT,"ORYSAT (Rice, Tebonnet) [6]; rate 0.0625 kg/ha",0.0
same,Preemergence herbicidal rating ORYSAT,"ORYSAT (Rice, Tebonnet) [6]; rate 0.1250 kg/ha",1.0
same,Preemergence herbicidal rating ORYSAT,"ORYSAT (Rice, Tebonnet) [6]; rate 0.2500 kg/ha",0.0
same,herbicidal rating CASOB,CASOB (Sicklepod); rate 0.0156 kg/ha,0.0
same,herbicidal rating CASOB,CASOB (Sicklepod); rate 0.0313 kg/ha,1.0
same,herbicidal rating CASOB,CASOB (Sicklepod); rate 0.0625 kg/ha,3.0
same,"herbicidal effect rating, MOOVA",MOOVA (Monochoria); 0.0313 kg/ha,6.0
same,"herbicidal effect rating, MOOVA",MOOVA (Monochoria); 0.0625 kg/ha,7.0
same,"herbicidal effect rating, MOOVA",MOOVA (Monochoria); 0.1250 kg/ha,9.0
same,"herbicidal effect rating, MOOVA",MOOVA (Monochoria); 0.2500 kg/ha,8.0
"Cn1c(C(F)(F)F)cc(=O)n(-c2cc(N=C3SCC(=O)N3C3CC3)c(Cl)cc2F)c1=O [Compound 152, 3-{4-Chloro-5-[(3-cyclopropyl-4-oxo-2-thiazolidinylidene)amino]-2-fluorophenyl}-1-methyl-6-(trifluoromethyl)-2,4(1H,3H)-pyrimidinedione]","herbicidal effect rating, CYPIR",CYPIR (Rice Flatsedge); 0.0625 kg/ha,0.0
same,"herbicidal effect rating, CYPIR",CYPIR (Rice Flatsedge); 0.1250 kg/ha,0.0
same,"herbicidal effect rating, CYPIR",CYPIR (Rice Flatsedge); 0.2500 kg/ha,0.0
same,Preemergence herbicidal rating TRZAWR,[1]; rate 0.0313 kg/ha,0.0
same,Preemergence herbicidal rating TRZAWR,[1]; rate 0.0625 kg/ha,1.0
same,Preemergence herbicidal rating TRZAWR,[1]; rate 0.1250 kg/ha,1.0
same,Preemergence herbicidal rating TRZAWR,[1]; rate 0.2500 kg/ha,1.0
same,herbicidal rating ORYSAT,"ORYSAT (Rice, Tebonnet) [2]; rate 0.0156 kg/ha",1.5
same,herbicidal rating ORYSAT,"ORYSAT (Rice, Tebonnet) [2]; rate 0.0313 kg/ha",2.0
same,herbicidal rating ORYSAT,"ORYSAT (Rice, Tebonnet) [2]; rate 0.0625 kg/ha",3.0
same,"herbicidal effect rating, SAGPY",[3]; 0.0625 kg/ha,0.0
same,"herbicidal effect rating, SAGPY",[3]; 0.1250 kg/ha,0.0
same,"herbicidal effect rating, SAGPY",[3]; 0.2500 kg/ha,0.0
same,Preemergence herbicidal rating SETVI,"SETVI (Foxtail, Green); rate 0.0313 kg/ha",0.0
same,Preemergence herbicidal rating SETVI,"SETVI (Foxtail, Green); rate 0.0625 kg/ha",1.0
same,Preemergence herbicidal rating SETVI,"SETVI (Foxtail, Green); rate 0.1250 kg/ha",1.0
same,Preemergence herbicidal rating SETVI,"SETVI (Foxtail, Green); rate 0.2500 kg/ha",9.0
same,Preemergence herbicidal rating ZEAMX,"ZEAMX (Corn, Field); rate 0.0313 kg/ha",0.0
same,Preemergence herbicidal rating ZEAMX,"ZEAMX (Corn, Field); rate 0.0625 kg/ha",1.0
same,Preemergence herbicidal rating ZEAMX,"ZEAMX (Corn, Field); rate 0.1250 kg/ha",1.0
same,Preemergence herbicidal rating ZEAMX,"ZEAMX (Corn, Field); rate 0.2500 kg/ha",2.0
same,herbicidal rating CHEAL,[4]; rate 0.0156 kg/ha,0.0
same,herbicidal rating CHEAL,[4]; rate 0.0313 kg/ha,4.0
same,herbicidal rating CHEAL,[4]; rate 0.0625 kg/ha,9.0
same,Preemergence herbicidal rating GALAP,GALAP (Galium); rate 0.0313 kg/ha,0.0
same,Preemergence herbicidal rating GALAP,GALAP (Galium); rate 0.0625 kg/ha,0.0
same,Preemergence herbicidal rating GALAP,GALAP (Galium); rate 0.1250 kg/ha,1.0
same,Preemergence herbicidal rating GALAP,GALAP (Galium); rate 0.2500 kg/ha,6.0
same,herbicidal rating ECHCG,ECHCG (Barnyardgrass); rate 0.0156 kg/ha,1.0
same,herbicidal rating ECHCG,ECHCG (Barnyardgrass); rate 0.0313 kg/ha,2.0
same,herbicidal rating ECHCG,ECHCG (Barnyardgrass); rate 0.0625 kg/ha,2.0
same,Preemergence herbicidal rating GLXMAW,[5]; rate 0.0313 kg/ha,0.0
same,Preemergence herbicidal rating GLXMAW,[5]; rate 0.0625 kg/ha,2.0
same,Preemergence herbicidal rating GLXMAW,[5]; rate 0.1250 kg/ha,2.0
same,Preemergence herbicidal rating GLXMAW,[5]; rate 0.2500 kg/ha,2.0
same,Preemergence herbicidal rating ORYSAT,"ORYSAT (Rice, Tebonnet) [6]; rate 0.0313 kg/ha",0.0
same,Preemergence herbicidal rating ORYSAT,"ORYSAT (Rice, Tebonnet) [6]; rate 0.0625 kg/ha",1.0
same,Preemergence herbicidal rating ORYSAT,"ORYSAT (Rice, Tebonnet) [6]; rate 0.1250 kg/ha",1.0
same,Preemergence herbicidal rating ORYSAT,"ORYSAT (Rice, Tebonnet) [6]; rate 0.2500 kg/ha",1.0
same,herbicidal rating CASOB,CASOB (Sicklepod); rate 0.0156 kg/ha,0.0
same,herbicidal rating CASOB,CASOB (Sicklepod); rate 0.0313 kg/ha,0.0
same,herbicidal rating CASOB,CASOB (Sicklepod); rate 0.0625 kg/ha,3.0
same,"herbicidal effect rating, MOOVA",MOOVA (Monochoria); 0.0625 kg/ha,3.0
same,"herbicidal effect rating, MOOVA",MOOVA (Monochoria); 0.1250 kg/ha,3.0
same,"herbicidal effect rating, MOOVA",MOOVA (Monochoria); 0.2500 kg/ha,3.0
